Data as given in patent publication US20170173114A1, “METHODS AND COMPOSITIONS FOR INDUCTION OF UCP1 EXPRESSION” (Joslin Diabetes Center, Inc., priority 2014, published 2017).

Legend:
Type in all cases: cell-based, murine
WT-1 brown preadipocytes [1] = experiment: 2-deoxy-[3H]glucose uptake in WT-1 brown preadipocytes; conditions: growth media, two days
Procedure: The following glucose uptake assay was used to determine whether FGF6 could impact cellular glucose uptake. Specifically, glucose uptake was monitored in WT-1 brown preadipocytes and 3T3-F442A white preadipocytes in the presence or absence of FGF6. After serum starvation in DMEM/H medium containing 1% of BSA for 2-3 h, cells were washed with HEPES buffer and then incubated with or without 100 nM insulin for 30 min in DMEM/H medium containing 1% of BSA. Glucose transport was determined by the addition of 2-deoxy-[3H]glucose (0.1 mM, 0.5 μCi/mL; PerkinElmer Life and Analytical Science, Waltham, Mass.). After 5 minutes of incubation, the reaction was stopped by ice-cold PBS and cells were washed twice with ice-cold PBS. Cells were then lysed in 0.1% SDS, and glucose uptake was assessed in 4 mL of scintillant using Beckman LS6500 scintillation counter (Beckman Coulter, Indianapolis Ind.). Nonspecific 2-deoxy-[3H]glucose uptake was measured in the presence of cytochalasin B (20 μM) and was subtracted from the total uptake to get specific glucose uptake. Results were expressed as the mean±s.e.m. of the indicated number of experiments. The protein content was determined by the Bradford method.
(§1) The role of PGs in regulating mitochondrial function and cellular glucose uptake was also assessed. […]

WT-1 brown preadipocytes [2] = experiment: Seahorse Bioanalyzer cellular respiration in WT-1 brown preadipocytes; conditions: growth media, two days
Text: The Seahorse XF24 (Seahorse Bioscience, http://www.seahorsebio.com/) was utilized for respirometry to measure oxygen consumption rates (OCR; indicating oxidative phosphorylation) and extracellular acidification rates (ECAR; indicating extracellular pH) in mature brown adipocytes. The cell plates and assay cartridges for the Seahorse XF24 have four ports allowing for drug delivery to individual wells during measurement of the metabolic parameters. For a typical bioenergetic profile, cells are first treated with oligomycin to block ATP synthase, FCCP as an uncoupler and Rotenone to block Complex 1 of the ETC (all from Sigma). Example 2 provides additional details regarding the general method. […]
A profile of cellular respiration was developed by utilizing well-characterized mitochondrial toxins, as described in FIG. 5B. First, basal respiration was measured, followed by injection of oligomycin (an inhibitor of ATP synthase which allows measurement of ATP turnover). Then, the uncoupler FCCP (carbonilcyanide p-triflouromethoxyphenylhydrazone) was injected to measure respiratory capacity, followed by the complex 1 inhibitor rotenone (which prevents electron transfer activity and leaves only non-mitochondrial activity to be measured). […]
as §1

PTGS2 (COX2) = experiment: PTGS2 mRNA / COX2 protein expression in WT-1 brown preadipocytes; conditions: WT-1, 24 hours; vs vehicle
Procedure: Total RNA was isolated with QIAzol lysis reagent (Qiagen, Valencia, Calif.) and purified by RNeasy Mini columns (Qiagen) following the manufacture's instructions. cDNA was prepared from total RNA using the Advantage RT-PCR kit (BD Biosciences, Palo Alto, Calif.) according to manufacturer's instructions. Diluted cDNA was used in a PCR reaction with SYBR Green Master Mix (Applied Biosystems, Foster City, Calif.) and primers specifically designed for detection of the gene of interest. PCR reactions were run in duplicate for each sample and quantitated in the ABI Sequence Detection System (Applied Biosystems). Data were expressed as arbitrary units after normalization to levels of expression of internal controls for each sample. Sequences of primers for specific genes are each obtained from the published literature or designed using publically available gene sequence databases. Unless otherwise indicated, gene expression data described in the examples below was obtained using QPCR.
Cells were harvested in lysis buffer (50 mM HEPES, 137 mM NaCl, 1 mM MgCl2, 1 mM CaCl2, 10 mM Na2P2O7, 10 mM NaF, 2 mM EDTA, 10% glycerol, 1% Igepal CA-630, 2 mM vanadate, 10 μg/ml of leupeptin, 10 μg/ml of aprotinin, 2 mM phenylmethylsulfonyl fluoride; pH 7.4). After lysis, lysates were clarified by centrifugation at 12,000×g for 20 min at 4° C., the amount of protein in the supernatants was determined by the Bradford Protein Assay (Bio-Rad Laboratories, Hercules, Calif.). Proteins were directly solubilized in Laemmli sample buffer. Equal amounts of lysates were separated by sodium dodecyl sulfate-polyacrylamide gel electrophoresis and transferred to Immobolin-P membranes. […] Specifically bound primary antibodies were detected with peroxidase-coupled secondary antibody and enhanced chemiluminescence (ECL, Amersham Biosciences, Piscataway, N.J.).
To determine if FGF4, FGF5, FGF6, FGF10, FGF16, FGF17, FGF18 or FGF20 induced either UCP1 mRNA or PTGS2 mRNA expression, murine brown preadipocyte WT-1 cells (Tseng et al., Nat. Cell. Biol. (2005) 7(6):601-611) were grown in growth media (DMEM-high glucose+10% FBS) supplemented with FGF4, FGF5, FGF6, FGF10, FGF16, FGF17, FGF18, FGF20 or buffer (control) in combination with insulin (20 nM) and triidothyronine (T3, 1 nM) for three days. All FGFs were used at a dosage of 200 ng/mL. mRNA was isolated and UCP1 and PTGS2 gene expression levels were evaluated by quantitative reverse transcription polymerase chain reaction (Q-RT-PCR) analysis. […]
To test the role of specific prostaglandins (PGs) in activating UCP1 expression, WT-1 brown adipocytes were pretreated with PGE2, PGI2 and FGF6 for 24 hours. mRNA expression levels of UCP1, PTGS2, LDHA, PDK1 and PKM2 were then measured.

Structure (SMILES) | glucose uptake in WT-1 brown preadipocytes (WT-1 brown preadipocytes [1]) | oxygen consumption in WT-1 brown preadipocytes (WT-1 brown preadipocytes [2]) | PTGS2 mRNA expression (PTGS2 (COX2))
CCCCC[C@H](O)/C=C/[C@H]1[C@H](O)CC(=O)[C@@H]1C/C=C\CCCC(=O)O [PGE2, reference compound] | enhanced | enhanced | significantly induced
CCCCC[C@H](O)/C=C/[C@@H]1[C@H]2C/C(=C/CCCC(=O)O)O[C@H]2C[C@H]1O [PGI2, reference compound] | enhanced | enhanced | significantly induced
